Experimental data taken from publication PMC4537050, “A long pentraxin-3-derived pentapeptide for the therapy of FGF8b-driven steroid hormone-regulated cancers” (Oncotarget, 2015).

Experiments:
[1] = target: T1, FGF6 (Homo sapiens, UniProt P10767); experiment: SPR analysis of FGF/ARPCA interaction, FGF6; assay type: binding; conditions: immobilized FGF6
T1 sequence (P10767 38-208): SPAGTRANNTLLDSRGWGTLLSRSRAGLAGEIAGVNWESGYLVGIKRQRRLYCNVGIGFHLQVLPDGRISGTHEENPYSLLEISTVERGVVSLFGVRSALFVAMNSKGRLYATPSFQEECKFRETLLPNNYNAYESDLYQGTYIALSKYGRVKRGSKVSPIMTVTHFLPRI

[2] = target: T2, FGF3 (Homo sapiens, UniProt P11487); experiment: SPR analysis of FGF/ARPCA interaction, FGF3; assay type: binding; conditions: immobilized FGF3
T2 sequence (P11487 18-239): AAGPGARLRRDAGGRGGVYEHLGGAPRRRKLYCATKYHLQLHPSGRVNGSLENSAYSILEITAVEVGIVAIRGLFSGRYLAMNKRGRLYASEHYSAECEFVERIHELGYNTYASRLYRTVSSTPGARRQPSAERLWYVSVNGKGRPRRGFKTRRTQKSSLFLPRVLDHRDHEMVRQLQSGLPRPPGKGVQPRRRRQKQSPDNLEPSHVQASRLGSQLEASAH

[3] = target: T3, FGF10 (Homo sapiens, UniProt O15520); experiment: SPR analysis of FGF/ARPCA interaction, FGF10; assay type: binding; conditions: immobilized FGF10
T3 sequence (O15520 38-208): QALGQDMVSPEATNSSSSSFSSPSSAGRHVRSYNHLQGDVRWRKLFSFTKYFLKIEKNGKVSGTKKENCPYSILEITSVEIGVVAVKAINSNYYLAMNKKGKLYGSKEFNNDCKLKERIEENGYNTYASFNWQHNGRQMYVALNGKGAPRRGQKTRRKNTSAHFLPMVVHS

[4] = target: FGF9 (Homo sapiens, UniProt P31371); experiment: SPR analysis of FGF/ARPCA interaction, FGF9; assay type: binding; conditions: immobilized FGF9
[5] = target: T4, FGF23 (Homo sapiens, UniProt Q9GZV9); experiment: SPR analysis of ARPCA on immobilized FGF23; assay type: binding; conditions: data not shown
T4 sequence (Q9GZV9 25-251): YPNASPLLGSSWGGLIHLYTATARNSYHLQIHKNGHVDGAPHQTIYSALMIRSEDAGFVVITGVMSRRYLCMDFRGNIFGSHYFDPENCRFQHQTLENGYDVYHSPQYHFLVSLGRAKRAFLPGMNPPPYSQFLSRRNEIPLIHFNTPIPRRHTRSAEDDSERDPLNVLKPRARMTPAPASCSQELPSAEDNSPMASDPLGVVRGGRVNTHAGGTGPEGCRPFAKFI

[6] = test system: HUVEC spheroids; experiment: Endothelial cell sprouting assay (HUVEC spheroids in fibrin gel); assay type: cell-based, human; conditions: 60 μM peptide, 24 h
Method: HUVEC spheroid aggregates were prepared in 20% methylcellulose medium, embedded in fibrin gel, and stimulated with FGF8b or VEGF-A (both at 30 ng/ml) plus 5% FBS in the absence or presence of 60 μM ARPCA or ARPVA. Formation of radially growing cell sprouts was observed during the next 24 h, photographed at 200x magnification using an Axiovert 200M microscope (Carl Zeiss, Milan, Italy, EU) and counted.

[7] = test system: S115 tumor grafts; experiment: Murine s.c. alginate implant assay, S115 cells; assay type: in vivo, athymic Nu/Nu male mice; conditions: i.p. 100 mg/kg every other day, plugs harvested day 14, compared to ARPVA-treated animals
Method: Eightweek-old athymic Nu/Nu or C57BL/6 male mice were injected s.c. with 450 μl of 3% (w/v) sodium alginate solution (alginic acid dissolved in LPS-free PBS) containing 5×10^6 S115 or 8×10^6 TRAMP-C2 cells, respectively. Mice were treated i.p. with ARPCA or ARPVA (100 mg/kg) on day 7, 9, 11 and 13 after implant. On day 14, alginate gels were harvested, weighted, embedded in OCT-compound and immediately frozen to be processed for histological analysis. For immunofluorescence stainings, sections (5 μm thick) were obtained with a cryostat microtome, air dried and fixed with acetone (for 5 min at 4°C). After blocking with 1% BSA (Bovine Serum Albumin) in PBS for 10 minutes, sections were incubated with primary antibodies, rabbit anti-FGFR1 (Santa Cruz Biotechnology), rabbit anti-phospho FGFR1 (Santa Cruz Biotechnology), Ki67 (Dako, Milano, Italy, EU) or CD31 (BD Biosciences Pharmingen, San Diego, CA, USA). After washing with PBS containing 0.05% Tween 20, sections were incubated with the appropriate Alexa Fluor 488 or Alexa Fluor 594-conjugated secondary antibody (Invitrogen). After mounting in a drop of anti-bleaching mounting medium containing DAPI (Vectashield, Vector Laboratories, Burlingame, CA, USA), sections were examined under a Zeiss Fluorescence Axiovert 200M microscope (Carl Zeiss).

[8] = test system: TRAMP-C2 tumor grafts; experiment: In vivo tumor therapy study, TRAMP-C2 tumors; parameters: species or system C57BL/6 male mice; conditions: s.c. TRAMP-C2 cells, i.p. 100 mg/kg every other day
Method: Eight week old C57BL/6 male mice were injected s.c. with 8×10^6 TRAMP-C2 cells, and eight week old athymic Nu/Nu male mice were injected s.c. with 5×10^6 S115 cells. All injections were performed in 200 μl total volume of PBS into the dorsolateral flank. When tumors were palpable treatment was performed every other day by i.p. injection of ARPCA, ARPVA (both at 100 mg/kg) or vehicle (PBS) in 100 μl final volume. Tumors were measured in two dimensions and tumor volume was calculated according to the formula V=(D × d^2)/2, where D and d are the major and minor perpendicular tumor diameters, respectively. At the end of the experimental procedure tumors were harvested, weighted and photographed.

[9] = target: T5, FGF8b (Homo sapiens, UniProt P55075); experiment: ARPCA-FGF8 interaction by 2D 1H-13C HSQC NMR titration; assay type: binding; parameters: purchased ASLA (Riga, Latvia); conditions: 190 μM ARPCA, FGF8b:ARPCA 0.5:1 and 1:1, intermediate to fast exchange
T5 sequence (P55075 23-215 isoform P55075-3 limits assumed): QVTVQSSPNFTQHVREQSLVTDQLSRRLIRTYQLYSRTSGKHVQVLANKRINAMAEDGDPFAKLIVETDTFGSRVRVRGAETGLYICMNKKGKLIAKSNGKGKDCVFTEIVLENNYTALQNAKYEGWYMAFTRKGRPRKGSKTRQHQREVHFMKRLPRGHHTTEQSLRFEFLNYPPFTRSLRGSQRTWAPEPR
Method: NMR experiments were collected on samples containing 190 μM of ARPCA, dissolved in 50 mM potassium phosphate buffer pH 6.7 (90% H2O/10% D2O), 2.5 mM arginine, 10mM NaCl in the presence of variable concentrations of FGF8 corresponding to 1:0, 1:0.5, and 1:1 ARPCA:FGF8 ratios.
2D 1H-13C HSQC spectra were recorded with a sweep width of 10 ppm and 100 ppm.2k × 128 data points were used in proton and carbon dimensions, respectively. Data, acquired and processed using Topspin (Bruker Biospin), were apodized with a squared sinebell shifted by 90° and polynomial baseline correction. All NMR spectra were recorded at 298 K with a Bruker DMX spectrometer operating at 600 MHz.

Ac-ARPCA-NH2 [ARPCA, Ac-ARPCA-NH2]
Kd, FGF6 [1]: n.b.
Kd, FGF3 [2]: n.b.
Kd, FGF10 [3]: n.b.
Kd, FGF9 [4]: n.b.
interaction with immobilized FGF23 [5]: did not show any interaction
sprouting activity exerted by FGF8b on HUVEC spheroids ([6]; 30 ng/ml FGF8b): specifically prevents the pro-angiogenic/sprouting activity
effect on the angiogenic potential of VEGF-A on HUVEC spheroids ([6]; 30 ng/ml VEGF-A): no effect
CD31+ neovascularization in S115 tumor grafts [7]: efficiently inhibited
FGFR1 phosphorylation in S115 tumor grafts [7]: efficiently inhibited
Ki67+ proliferation index in S115 tumor grafts [7]: efficiently inhibited
growth of TRAMP-C2 tumor grafts, long-term assay [8]: inhibited the growth of TRAMP-C2 tumor grafts
binding to FGF8b indicated by NMR titration [9]: micromolar range
